The text below walks through data of ChEMBL document CHEMBL4043203, “Synthesis and biological evaluations of new nitric oxide-anti-inflammatory drug hybrids” (Bioorg Med Chem Lett, 2017).

SMILES strings stand for the structures.

Data set [1] has as its target T1, Prostaglandin G/H synthase 1 (Ovis aries, UniProt P05979).
T1 sequence (P05979 whole entry): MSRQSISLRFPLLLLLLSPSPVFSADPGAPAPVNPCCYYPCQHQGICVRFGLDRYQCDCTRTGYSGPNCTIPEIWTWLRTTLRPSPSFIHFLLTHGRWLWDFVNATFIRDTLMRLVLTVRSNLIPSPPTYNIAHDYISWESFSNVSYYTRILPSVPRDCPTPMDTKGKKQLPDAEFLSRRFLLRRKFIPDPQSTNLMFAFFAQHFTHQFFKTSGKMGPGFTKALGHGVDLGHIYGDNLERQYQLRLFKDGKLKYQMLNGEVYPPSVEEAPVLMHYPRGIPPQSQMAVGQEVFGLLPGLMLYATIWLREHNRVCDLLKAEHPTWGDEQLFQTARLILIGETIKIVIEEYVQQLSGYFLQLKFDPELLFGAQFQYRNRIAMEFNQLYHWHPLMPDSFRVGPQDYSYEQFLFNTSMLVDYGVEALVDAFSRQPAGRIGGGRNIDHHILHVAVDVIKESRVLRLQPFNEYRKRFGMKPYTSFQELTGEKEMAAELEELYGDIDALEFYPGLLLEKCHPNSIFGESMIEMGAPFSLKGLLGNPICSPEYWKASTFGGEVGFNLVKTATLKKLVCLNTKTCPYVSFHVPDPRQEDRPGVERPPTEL
Kind of data set: Inhibition of ovine COX1 using arachidonic acid as substrate by colorimetric enzyme immune assay.

In data set [2] the test system is Rattus norvegicus. In words: Ulcerogenic activity in Wistar albino rat assessed as relative ulcerogenicity at 50 mg/kg, po treated for 3 successive days measured at 2 hrs post last dose relative to celecoxib. As to conditions: in vivo. Format: toxicity, organism-based, Wister.
Data set [3] in a line: Selectivity index, ratio of IC50 for ovine COX1 to IC50 for recombinant human COX2.
Data set [4] concerns Rattus norvegicus. Kind of data set: Antiinflammatory activity in Wistar albino rat assessed as inhibition of carrageenan-induced left hind paw edema at 50 mg/kg, po pretreated for 1 hr followed by carrageenan addition measured after 2 hrs relative to control. The class given is functional. The settings on record: Wister.
For data set [5], the system named is Rattus norvegicus. In words: Antiinflammatory activity in Wistar albino rat assessed as serum nitric oxide level at 50 mg/kg, po treated for 3 successive days measured at 2 hrs post last dose by Griess reagent based colorimetric assay (reference value: 147.90 +/- 31.76 micromol/L). The class given is functional, Wister. (In general: Nitrite, measured by Griess reagent, commonly stands in for NO production.)

For data set [6], the target named is T2, Prostaglandin G/H synthase 2 (Homo sapiens, UniProt P35354).
T2 sequence (P35354 whole entry): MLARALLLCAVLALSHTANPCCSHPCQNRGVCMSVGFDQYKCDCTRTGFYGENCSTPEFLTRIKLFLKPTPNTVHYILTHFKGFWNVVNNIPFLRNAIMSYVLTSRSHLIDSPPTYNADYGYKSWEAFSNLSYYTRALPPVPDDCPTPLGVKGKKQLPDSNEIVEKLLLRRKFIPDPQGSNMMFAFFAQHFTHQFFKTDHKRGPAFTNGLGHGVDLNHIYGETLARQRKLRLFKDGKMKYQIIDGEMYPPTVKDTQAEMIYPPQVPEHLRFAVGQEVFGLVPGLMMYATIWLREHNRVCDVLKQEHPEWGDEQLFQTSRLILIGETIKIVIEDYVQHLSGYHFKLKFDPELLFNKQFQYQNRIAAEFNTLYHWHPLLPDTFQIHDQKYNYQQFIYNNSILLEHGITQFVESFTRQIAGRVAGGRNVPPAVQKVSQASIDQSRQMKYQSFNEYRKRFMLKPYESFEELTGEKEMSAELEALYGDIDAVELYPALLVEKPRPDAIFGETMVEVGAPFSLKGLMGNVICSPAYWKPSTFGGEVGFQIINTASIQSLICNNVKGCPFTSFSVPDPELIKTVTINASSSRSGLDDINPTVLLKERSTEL
In words: Inhibition of recombinant human COX2 using arachidonic acid as substrate by colorimetric enzyme immune assay.

Data set [7] concerns Rattus norvegicus. In words: Antiinflammatory activity in po dosed Wistar albino rat assessed as inhibition of carrageenan-induced left hind paw edema pretreated for 1 hr followed by carrageenan addition measured after 2 hrs. The class given is functional. The settings on record: Wister.
Data set [8] has as its system Rattus norvegicus. Kind of data set: Ulcerogenic activity in Wistar albino rat assessed as ulcer index at 50 mg/kg, po treated for 3 successive days measured at 2 hrs post last dose. Format: toxicity, organism-based, Wister. As to conditions: in vivo.
For data set [9], the species on record is Rattus norvegicus. In words: Ulcerogenic activity in Wistar albino rat assessed as minimum vasocapillary dilation in stomach after 48 hrs by hematoxylin and eosin staining based microscopic analysis. Format: toxicity, Wister. The settings on record: in vivo.
The species named for data set [10] is Rattus norvegicus. In words: Ulcerogenic activity in Wistar albino rat assessed as lesion in stomach after 48 hrs by hematoxylin and eosin staining based microscopic analysis. Format: toxicity, Wister. As to conditions: in vivo.
The species entered for data set [11] is Rattus norvegicus. Kind of data set: Ulcerogenic activity in Wistar albino rat assessed as loss of mucous in stomach after 48 hrs by hematoxylin and eosin staining based microscopic analysis. As to conditions: in vivo. Format: toxicity, Wister.
For data set [12], the species on record is Rattus norvegicus. Kind of data set: Ulcerogenic activity in Wistar albino rat assessed as abdominal perforation in stomach after 48 hrs by hematoxylin and eosin staining based microscopic analysis. The class given is toxicity, Wister. The settings on record: in vivo.

For `Cc1c(C2=C(N=O)Sc3ccccc3N2)cnn1-c1ccccc1`, the results for the IC50 in data set [1] and in data set [6] were 7.72 µM and 1.83 µM, respectively. Besides, the “fold change (FC)” value in data set [2] amounted to 1. The Ratio IC50 in data set [3] came out at 4.21. In addition, the inhibition in vivo at 50 mg/kg in data set [4] was 56%. Also, in data set [5], the Activity is 348.3 µmol/L. Besides, in [7], the ED50 stood at 45 mg/kg. Further, the UI in [8] is listed as 0.33.

`Cc1c(-c2nnc(-c3cnn(-c4ccccc4)c3C)c3nocc23)cnn1-c1ccccc1`: the IC50 was 10.1 µM in data set [1] and 6.88 µM in [6]. The values for the Activity entry in data set [9], in data set [10] and in data set [5] were “Non-Toxic”, “Non-Toxic” and 318.8 µmol/L, respectively. In data set [2], the “fold change (FC)” value worked out at 4.03. Moreover, the Ratio IC50 in data set [3] was 1.46. The UI in data set [8] was determined as 1.33.

On to `Cc1c(C2=C(N=O)Nc3ccccc3N2)cnn1-c1ccccc1`, for which the IC50 in data set [1] amounted to 9.22 µM; in [6], 1.61 µM. In addition, the “fold change (FC)” value in data set [2] worked out at 7.06. In [3], the Ratio IC50 was determined as 5.77. In data set [4], the inhibition in vivo at 50 mg/kg came out at 57%. Moreover, the Activity in data set [5] stood at 370.1 µmol/L. Also, in data set [7], the median effective dose (ED50) is 40 mg/kg. Besides, in data set [8], the UI turned out to be 2.33.

Regarding `Cc1c(C2=C(N=O)Oc3cccnc3N2)cnn1-c1ccccc1`, the IC50 came to 5.6 µM in data set [1] and 1.22 µM in data set [6]. Also, the “fold change (FC)” value in data set [2] was determined as 1. The Ratio IC50 in [3] amounted to 4.59. Further, in data set [4], the inhibition in vivo at 50 mg/kg was found to be 64%. Also, in data set [5], the Activity was found to be 415.3 µmol/L. Also, in [7], the ED50 was found to be 35 mg/kg. In addition, the UI in data set [8] is given as 0.33.

Regarding `Cc1c(-c2c(N=O)nc3ncccn23)cnn1-c1ccccc1`, the half-inhibitory concentration (IC50) was found to be 6.8 µM in data set [1] and 1.55 µM in data set [6]. Also, the results for the Activity entry in [9], in [10] and in [5] were “Non-Toxic”, “Non-Toxic” and 386.3 µmol/L, respectively. In addition, the “fold change (FC)” value in data set [2] was 1. Also, in data set [3], the Ratio IC50 amounted to 4.38. Further, in data set [4], the inhibition in vivo at 50 mg/kg is 62%. Moreover, the ED50 in data set [7] is 38 mg/kg. The UI in data set [8] is on record as 0.33.

`Cc1c(C2=C(N=O)Oc3ccccc3N2)cnn1-c1ccccc1`: the half-maximal inhibitory concentration (IC50) in data set [1] was determined as 8.6 µM; in data set [6] it was 4.2 µM. Further, the “fold change (FC)” value in data set [2] is 6.06. Moreover, in data set [3], the Ratio IC50 is 2.04. For the same compound, the inhibition in vivo at 50 mg/kg in data set [4] came out at 56%. Besides, the Activity in [5] is 335.3 µmol/L. Moreover, the ED50 in data set [7] came to 45 mg/kg. The UI in data set [8] came out at 2.

Regarding `Cc1c(C(=O)c2nocc2C(=O)c2ccccc2)cnn1-c1ccccc1`, the IC50 worked out at 11.1 µM in data set [1] and 1.49 µM in [6]. Further, the “fold change (FC)” value in [2] is given as 1. For the same compound, the Ratio IC50 in data set [3] came to 7.44. The inhibition in vivo at 50 mg/kg in data set [4] worked out at 41%. Besides, the Activity in data set [5] was 372 µmol/L. For the same compound, the ED50 in data set [7] stood at 61 mg/kg. The UI in [8] amounted to 0.33.

For `Cc1ccc(-c2nnc(-c3cnn(-c4ccccc4)c3C)c3nocc23)cc1`, the IC50 came out at 10.2 µM in data set [1] and 1.28 µM in [6]. For the same compound, in data set [2], the “fold change (FC)” value was 1. In addition, the Ratio IC50 in data set [3] worked out at 7.94. The inhibition in vivo at 50 mg/kg in data set [4] was 54%. Moreover, the Activity in data set [5] was 273.1 µmol/L. The ED50 in [7] came to 46 mg/kg. In addition, the UI in data set [8] was found to be 0.33.

`Cc1ccc(-c2cc(C(F)(F)F)nn2-c2ccc(S(N)(=O)=O)cc2)cc1` [CELECOXIB]: the Activity result in [9] and in data set [10] was “Non-Toxic” throughout. For the same compound, in [4], the inhibition in vivo at 50 mg/kg was 65%. The ED50 in [7] was 35 mg/kg. Further, in [8], the UI is 0.33.

Consider `Cc1c(C(=O)/C(Cl)=N/O)cnn1-c1ccccc1`, for which the IC50 in data set [1] worked out at 9.8 µM; in data set [6], 2.33 µM. The Activity entry in [9] is “Non-Toxic”; in data set [11], “Non-Toxic”; in data set [5] it was 315.5 µmol/L. Besides, the “fold change (FC)” value in data set [2] is listed as 15.15. In addition, the Ratio IC50 in data set [3] was 4.2. In data set [4], the inhibition in vivo at 50 mg/kg turned out to be 50%. For the same compound, in data set [7], the ED50 turned out to be 50 mg/kg. Further, the UI in [8] amounted to 5.

For the compound `Cc1c(-c2nc3ccccc3nc2N=O)cnn1-c1ccccc1`, the IC50 in data set [1] was 9.2 µM; in data set [6], 6.6 µM. Besides, the “fold change (FC)” value in [2] is recorded as 9.09. Also, the Ratio IC50 in data set [3] amounted to 1.39. Besides, the inhibition in vivo at 50 mg/kg in data set [4] is 59%. The Activity in data set [5] was 140.1 µmol/L. For the same compound, the 50% effective dose (ED50) in [7] was determined as 40 mg/kg. Moreover, the UI in [8] was 3.

For the compound `Cc1ccc(C(=O)c2conc2C(=O)c2cnn(-c3ccccc3)c2C)cc1`, the IC50 in [1] stood at 4.52 µM; in [6], 1.12 µM. In addition, in [2], the “fold change (FC)” value was 4.03. In addition, in [3], the Ratio IC50 worked out at 4.03. Moreover, the inhibition in vivo at 50 mg/kg in data set [4] is 45%. In addition, in data set [5], the Activity worked out at 346.5 µmol/L. The ED50 in data set [7] is 56 mg/kg. Further, the UI in [8] amounted to 1.33.

Consider `Cc1c(-c2nnc(-c3ccccc3)c3conc23)cnn1-c1ccccc1`, for which the IC50 in data set [1] was found to be 5.88 µM; in [6] it was 0.78 µM. Moreover, the “fold change (FC)” value in data set [2] is 5.06. In addition, the Ratio IC50 in data set [3] turned out to be 7.84. Also, the inhibition in vivo at 50 mg/kg in [4] was found to be 50%. The Activity in [5] is 314.4 µmol/L. Moreover, the ED50 in [7] is 50 mg/kg. Further, the UI in data set [8] is given as 1.76.

Turning to `Cc1c(C(=O)c2conc2C(=O)c2cnn(-c3ccccc3)c2C)cnn1-c1ccccc1`, the values for the IC50 in [1] and in [6] were 9.11 µM and 4.5 µM, respectively. Further, the “fold change (FC)” value in [2] is recorded as 1. Further, the Ratio IC50 in data set [3] turned out to be 2.02. In data set [5], the Activity stood at 286.2 µmol/L. The UI in [8] is listed as 0.33.

As to `COc1ccc2c(c1)c(CC(=O)O)c(C)n2C(=O)c1ccc(Cl)cc1` [INDOMETHACIN], the Activity result in [11] and in data set [12] was “Toxic” throughout.

Consider `Cc1c(-c2nc3ccccn3c2N=O)cnn1-c1ccccc1`, for which the IC50 in [1] worked out at 9.2 µM; in data set [6], 1.75 µM. Moreover, in [2], the “fold change (FC)” value worked out at 6.06. The Ratio IC50 in data set [3] came out at 5.25. Moreover, the inhibition in vivo at 50 mg/kg in data set [4] stood at 65%. The Activity in data set [5] worked out at 402.6 µmol/L. Further, the ED50 in data set [7] worked out at 35 mg/kg. In addition, the UI in data set [8] was 2.

The term IC50 denotes the point on the concentration scale where inhibition reaches its midpoint. What is called inhibition in vivo is the share of the control response that was lost under treatment. For orientation: ED50 means the midpoint of the dose-response relation.
